Where two headings read alike, the source gives them in different places. Numbered stars: 1 amine (or outer) side, 2 acyl side, 3 side chain; on linkers, the order of the positions; unused ones are H or OH. Square brackets hold non-standard residues; d marks the D form. Peptide text beside a SMILES is read from it. * marks the point of attachment. Sta = CC(C)C[C@H](N)[C@@H](O)CC(=O)O; AMC = Cc1cc(=O)oc2cc(N*)ccc12; Suc = O=C(CCC(=O)[*:2])[*:1]; Isovaleryl = CC(C)CC(=O)*; Cbz = O=C(OCc1ccccc1)*; Boc = CC(C)(C)OC(=O)*; CO = O=C([*:1])[*:2]
What was measured:
[1] = tested on: Benz-I (protease specific for basic amino acid residue); assay: Behavior of Benz-I against various inhibitors (residual activity); format: biochemical, Kluyveromyces lactis IFO 1903
[2] = tested on: Benz-II (protease specific for basic amino acid residue); assay: Behavior of Benz-II against various inhibitors (residual activity); format: biochemical, Kluyveromyces lactis IFO 1903
[3] = tested on: Benz-I (protease specific for basic amino acid residue); assay: Substrate specificity of Benz-I with fluorescent substrates; format: biochemical, Kluyveromyces lactis IFO 1903; settings: activity for Boc-Gln-Arg-Arg-MCA being 100; standard conditions
Procedure: (§1) 1 ml of a reaction mixture containing 50 μmol of Tris-hydrochloride buffer (pH 7.0), 10 mg of Lubrol PX, 0.5 μmol of calcium chloride, 0.1 μmol of Boc-Gln-Arg-Arg-MCA, wherein Boc represents a t-butyloxycarbonyl group while MCA represents 4-methylcoumarin-7-amide and the enzyme is allowed to react at 30° C. The fluorescence (excition wavelength: 380 nm, emmision wavelength: 460 nm) originating from the 7-amino-4-methylcoumarin (AMC) thus formed is monitored with the lapse of time. The amount of the enzyme activity capable of catalyzing the release of 1 n mol of AMC per one minute is defined as 1 U. The specific activity is represented by U per mg of protein. The amount of the protein is determined by measurement the absorbance at […] as E^1% of protein being assumed to be 10.
(§2) The activities of Benz-I and Benz-II were determined under standard conditions with the use of various fluorescent substrates. The activity for each substrate was expressed by relative activity with the activity for Boc-Gln-Arg-Arg-MCA being 100.

[4] = tested on: Benz-II (protease specific for basic amino acid residue); assay: Substrate specificity of Benz-II with fluorescent substrates; format: biochemical, Kluyveromyces lactis IFO 1903; settings: activity for Boc-Gln-Arg-Arg-MCA being 100; standard conditions
Procedure: as §1, §2

[5] = tested on: protease specific for basic amino acid residue from Sporobolomyces odrus IFO 1597; assay: Substrate specificity of Sporobolomyces protease with fluorescent substrates; format: biochemical; settings: activity for Boc-Gln-Arg-Arg-MCA being 100; standard conditions
Procedure: A reaction mixture containing 50 μmol of tris hydrochloride buffer solution (pH 7.0), 10 mg of Lubrol PX, 0.5 μmol of calcium chloride, 0.1 μmol of Boc-Gln-Arg-Arg-MCA, wherein Boc represents a t-butyloxycalbonyl group while MCA represents 4-methylcoumarin-7-amide and the enzyme is allowed to react at 30° C. The fluorescence (excition wavelength: 380 nm, emission wavelength: 460 nm) originating from the 7-amino-4-methylcoumarin (AMC) thus formed is monitored. The amount of the enzyme capable of catalyzing the release of 1 nmol of AMC per one minute is defined as 1 U.
The activities of the enzyme for various fluorescent substrates were determined under standard reaction conditions.

[6] = tested on: protease specific for basic amino acid residue from Sporobolomyces odrus IFO 1597; assay: Behavior of Sporobolomyces protease against various inhibitors (residual activity); format: biochemical; settings: 25° C. 30 minutes
[7] = inhibitor 0.1%, 25° C. 30 minutes, control lot = 100
[8] = inhibitor 4 M, 25° C. 30 minutes, control lot = 100
[9] = inhibitor 10 μM, 25° C. 30 minutes, control lot = 100
[10] = inhibitor 0.2 mM, 25° C. 30 minutes, control lot = 100
[11] = inhibitor 1 mM, 25° C. 30 minutes, control lot = 100
[12] = inhibitor 5 mM, 25° C. 30 minutes, control lot = 100

For `CCCCCCCCCCCCOS(=O)(=O)[O-].[Na+]` [sodium dodecyl sulfate], the “Residual activity of Benz-I” value [1, 7] was 94 and the “Residual activity of Benz-II” value [2, 7] was 91.

With `NC(N)=O` [urea] the “Residual activity of Benz-I” value [1, 8] was 23 and the “Residual activity of Benz-II” value [2, 8] was 29.

In the case of `Cc1cc(=O)oc2cc(NC(=O)[C@H](CCCNC(=N)N)NC(=O)[C@H](CCCNC(=N)N)NC(=O)[C@H](CCC(N)=O)NC(=O)OC(C)(C)C)ccc12` [Boc--Gln--Arg--Arg--MCA, Boc-Gln-Arg-Arg-MCA] (Boc-Gln-Arg-Arg-{AMC}), the “Relative activity of Benz-I for substrate” value [3] is reported as 100, the “Relative activity of Benz-II for substrate” value [4] is reported as 100 and the “Activity (relative) for substrate” value [5] is reported as 100%.

In the case of `Cc1cc(=O)oc2cc(NC(=O)[C@H](CCCNC(=N)N)NC(=O)[C@@H](NC(=O)[C@H](CC(C)C)NC(=O)OC(C)(C)C)[C@@H](C)O)ccc12` [Boc--Leu--Thr--Arg--MCA] (Boc-Leu-Thr-Arg-{AMC}), the “Relative activity of Benz-I for substrate” value [3] is reported as 20.0, the “Relative activity of Benz-II for substrate” value [4] is reported as 13.9 and the “Activity (relative) for substrate” value [5] is reported as 3%.

For `O=C(O)CI` [iodoacetic acid], the “Residual activity of Benz-I” value [1] was 99 and the “Residual activity of Benz-II” value [2] was 93.

With `Cc1cc(=O)oc2cc(NC(=O)[C@H](C)NC(=O)[C@@H]3CCCN3C(=O)[C@H](C)NC(=O)CCC(=O)O)ccc12` [Suc--Ala--Pro--Ala--MCA] (Suc-Ala-Pro-Ala-{AMC}) the “Activity (relative) for substrate” value [5] was 0%.

For chymostatin, the “Residual activity of Benz-I” value [1, 9] was 98, the “Residual activity of Benz-II” value [2, 9] was 99 and the “relative activity (residual)” value ([6]; Ca2+ +, inhibitor 10 μM) was 98%.

In the case of `Cc1cc(=O)oc2cc(NC(=O)[C@H](Cc3ccc(O)cc3)NC(=O)[C@@H](NC(=O)[C@H](CC(C)C)NC(=O)[C@H](CC(C)C)NC(=O)CCC(=O)O)C(C)C)ccc12` [Suc--Leu--Leu--Val--Tyr--MCA] (Suc-LLVY-{AMC}), the “Activity (relative) for substrate” value [5] is reported as 0%.

`Cc1ccc(S(=O)(=O)NC(CCCCN)C(=O)CCl)cc1` (stereo not drawn) [tosyllysine chloromethyl ketone] was tested, and the “Residual activity of Benz-I” value [1, 10] was 98, the “Residual activity of Benz-II” value [2, 10] was 95 and the “relative activity (residual)” value ([6]; Ca2+ +, inhibitor 0.2 mM) was 108%.

For `NC(=O)CI` [iodoacetamide], the “Residual activity of Benz-I” value [1, 11] was 92, the “Residual activity of Benz-II” value [2, 11] was 87 and the “relative activity (residual)” value ([6]; Ca2+ +, inhibitor 1 mM) was 96%.

In the case of `c1cnc2c(c1)ccc1cccnc12` [o-phenanthroline], the “Residual activity of Benz-I” value [1, 11] is reported as 96, the “Residual activity of Benz-II” value [2, 11] is reported as 86 and the “relative activity (residual)” value ([6]; Ca2+ --, inhibitor 1 mM) is reported as 91%.

In the case of `N=C(N)c1ccccc1` [benzamidine], the “Residual activity of Benz-I” value [1, 11] is reported as 79, the “Residual activity of Benz-II” value [2, 11] is reported as 82 and the “relative activity (residual)” value ([6]; Ca2+ +, inhibitor 1 mM) is reported as 82%.

`CC(C)[C@H](NC(=O)[C@H](CCCNC(=N)N)NC(=O)N[C@@H](Cc1ccccc1)C(=O)O)C(=O)N[C@H](C=O)CCCNC(=N)N` [antipain] ({Phe-CO}-Arg-Val-Arg-aldehyde) was tested, and the “Residual activity of Benz-I” value [1, 9] was 89, the “Residual activity of Benz-II” value [2, 9] was 88 and the “relative activity (residual)” value ([6]; Ca2+ +, inhibitor 10 μM) was 70%.

With `Cc1cc(=O)oc2cc(NC(=O)[C@H](CCCNC(=N)N)NC(=O)c3ccccc3)ccc12` [Bz--Arg--MCA] the “Activity (relative) for substrate” value [5] was 0%.

With `Cc1cc(=O)oc2cc(NC(=O)[C@H](CCCCN)NC(=O)[C@H](CC(C)C)NC(=O)[C@@H](NC(=O)OC(C)(C)C)C(C)C)ccc12` [Boc--Val--Leu--Lys--MCA] (Boc-Val-Leu-Lys-{AMC}) the “Activity (relative) for substrate” value [5] was 0%.

With `Cc1cc(=O)oc2cc(NC(=O)[C@H](Cc3ccccc3)NC(=O)[C@@H]3CCCN3C(=O)[C@H](C)NC(=O)[C@H](C)NC(=O)CCC(=O)O)ccc12` [Suc--Ala--Ala--Pro--Phe--MCA] (Suc-AAPF-{AMC}) the “Activity (relative) for substrate” value [5] was less than 1%.

In the case of `CCCCC(NC(=O)C=[N+]=[N-])C(=O)OC` (racemic) [diazoacetyl-DL-norleucine methyl ester], the “Residual activity of Benz-I” value [1, 12] is reported as 85, the “Residual activity of Benz-II” value [2, 12] is reported as 73 and the “relative activity (residual)” value ([6]; Ca2+ +, inhibitor 5 mM) is reported as 72%.

For `CCN1C(=O)C=CC1=O` [N-ethylmaleimide], the “Residual activity of Benz-I” value [1, 11] was 101, the “Residual activity of Benz-II” value [2, 11] was 94 and the “relative activity (residual)” value ([6]; Ca2+ +, inhibitor 1 mM) was 125%.

`CC(C)C[C@H](NP(=O)(O)O[C@@H]1O[C@@H](C)[C@H](O)[C@@H](O)[C@H]1O)C(=O)N[C@@H](Cc1c[nH]c2ccccc12)C(=O)O` [phosphoramidon] was tested, and the “Residual activity of Benz-I” value [1, 9] was 101, the “Residual activity of Benz-II” value [2, 9] was 93 and the “relative activity (residual)” value ([6]; Ca2+ +, inhibitor 10 μM) was 100%.

For `O=S(=O)(F)Cc1ccccc1` [phenylmethanesulfonyl fluoride], the “Residual activity of Benz-I” value [1, 11] was 107, the “Residual activity of Benz-II” value [2, 11] was 103 and the “relative activity (residual)” value ([6]; Ca2+ +, inhibitor 1 mM) was 112%.

With `CC[C@H](C)[C@H](NC(=O)OC(C)(C)C)C(=O)N[C@@H](CCC(=O)O)C(=O)NCC(=O)N[C@@H](CCCNC(=N)N)C(=O)Nc1ccc2c(C)cc(=O)oc2c1` [Boc--Ile--Glu--Gly--Arg--MCA] (Boc-IEGR-{AMC}) the “Activity (relative) for substrate” value [5] was 5%.

`Cc1cc(=O)oc2cc(NC(=O)[C@@H]3CCCN3C(=O)CNC(=O)CCC(=O)O)ccc12` [Suc--Gly--Pro--MCA] (Suc-Gly-Pro-{AMC}) was tested, and the “Activity (relative) for substrate” value [5] was 0%.

With `Cc1cc(=O)oc2cc(NC(=O)[C@H](CCCNC(=N)N)NC(=O)[C@H](CCCNC(=N)N)NC(=O)OCc3ccccc3)ccc12` [Z--Arg--Arg--MCA] (Cbz-Arg-Arg-{AMC}) the “Activity (relative) for substrate” value [5] was 0%.

In the case of `O[C@H](CS)[C@H](O)CS` (racemic) [dithiothreitol], the “Residual activity of Benz-I” value [1, 11] is reported as 96, the “Residual activity of Benz-II” value [2, 11] is reported as 128 and the “relative activity (residual)” value ([6]; Ca2+ +, inhibitor 1 mM) is reported as 97%.

In the case of `Cc1cc(=O)oc2cc(NC(=O)[C@@H](N)CC(C)C)ccc12` [Leu--MCA], the “Activity (relative) for substrate” value [5] is reported as less than 1%.

`Cc1cc(=O)oc2cc(NC(=O)[C@@H](N)CCCNC(=N)N)ccc12` [Arg--MCA] was tested, and the “Activity (relative) for substrate” value [5] was less than 1%.

In the case of `CC(C)C[C@H](NC(=O)[C@H]1O[C@@H]1C(=O)O)C(=O)NCCCCNC(=N)N` [E-64], the “Residual activity of Benz-I” value [1, 9] is reported as 99, the “Residual activity of Benz-II” value [2, 9] is reported as 96 and the “relative activity (residual)” value ([6]; Ca2+ +, inhibitor 10 μM) is reported as 100%.

In the case of `OCCS` [2-mercaptoethanol], the “Residual activity of Benz-I” value [1, 11] is reported as 112, the “Residual activity of Benz-II” value [2, 11] is reported as 153 and the “relative activity (residual)” value ([6]; Ca2+ +, inhibitor 1 mM) is reported as 95%.

In the case of `Cc1cc(=O)oc2cc(NC(=O)[C@H](CCCNC(=N)N)NC(=O)[C@H](Cc3ccccc3)NC(=O)[C@@H]3CCCN3)ccc12` [Pro--Phe--Arg--MCA] (H-Pro-Phe-Arg-{AMC}), the “Activity (relative) for substrate” value [5] is reported as 0%.

For `CC(=O)N[C@@H](CC(C)C)C(=O)N[C@@H](CC(C)C)C(=O)N[C@H](C=O)CCCNC(=N)N` [leupeptin], the “Residual activity of Benz-I” value [1, 9] was 93, the “Residual activity of Benz-II” value [2, 9] was 96 and the “relative activity (residual)” value ([6]; Ca2+ +, inhibitor 10 μM) was 92%.

`CC(C)C[C@H](NC(=O)[C@@H](O)[C@H](N)Cc1ccccc1)C(=O)O` [bestatin] was tested, and the “Residual activity of Benz-I” value [1, 9] was 95, the “Residual activity of Benz-II” value [2, 9] was 97 and the “relative activity (residual)” value ([6]; Ca2+ +, inhibitor 10 μM) was 97%.

In the case of `CC(C)CC(=O)N[C@H](C(=O)N[C@H](C(=O)N[C@@H](CC(C)C)[C@@H](O)CC(=O)N[C@@H](C)C(=O)N[C@@H](CC(C)C)[C@@H](O)CC(=O)O)C(C)C)C(C)C` [pepstatin A] (Isovaleryl-VV[Sta]A[Sta]-OH), the “Residual activity of Benz-I” value [1, 9] is reported as 100, the “Residual activity of Benz-II” value [2, 9] is reported as 96 and the “relative activity (residual)” value ([6]; Ca2+ +, inhibitor 10 μM) is reported as 104%.

`Cc1cc(=O)oc2cc(NC(=O)[C@H](CCCNC(=N)N)NC(=O)CNC(=O)[C@H](CC(C)C)NC(=O)OC(C)(C)C)ccc12` [Boc--Leu--Gly--Arg--MCA] (Boc-Leu-Gly-Arg-{AMC}) was tested, and the “Activity (relative) for substrate” value [5] was 1%.
